From patent US20220354818A1, “METHODS FOR TREATING BRAIN INJURY OR COGNITIVE DYSFUNCTION BY PHARMACOLOGICAL ENHANCMENT OF M-TYPE POTASSIUM ION CURRENTS IN NEURONS” (Advanced Neuroresearch Therapeutics LLC, priority 2019, published 2022)
“Also recorded” adds a separate entry of the source.

Experiments:
[1] = tested on: mice subjected to one blunt TBI, pentylenetetrazol (PTZ); assay: PTZ-induced seizure susceptibility after one blunt TBI (CCCI); assay type: in vivo, mouse; settings: RTG at 1 mg/kg; PTZ 35 mg/kg s.c. fifth day post-TBI
Description: Stimulation with PTZ induced the occurrence of clonic and tonic-clonic seizures in TBI-subjected mice.

[2] = tested on: C57BL/6J mice subjected to controlled closed cortical impact (CCCI); assay: Post-traumatic seizures after CCCI blunt TBI, video/EEG monitoring; assay type: in vivo, mouse; settings: RTG 1.2 mg/kg i.p. 30 minutes post-TBI, video/EEG three days starting 24 hours after injury
Description: Male and female mice were used for all experiments performed, except for GFAP, Iba1 and Fluro-Jade B histology experiments and for PSVue794 and Evans Blues imaging.
Animals were divided randomly among cohorts so that each cage included animals from all treatments.
The CCCI model was used to generate reproducible moderate blunt brain injury. This model has the advantages of producing focal contusion in which the skull remains intact. CCCI can most closely simulate blunt-head traumas resulting from falls, physical violence, or motor vehicle accidents and particularly in rodent models often produces spontaneous seizures within 24 hours.
A single trauma per mouse was employed. CCCI was delivered by a pneumatic impact device (Leica Biosystems) following a protocol previously published. A cylindrical probe of 5 mm diameter was used to deliver a calibrated impact to the skull, 1 mm depth over the right parietal cortex and a small portion of the caudal end of the right frontal cortex, at a velocity of 4.5 m/s to produce a moderate TBI. […]
To quantify seizure frequency and determine seizure susceptibility, mice of each cohort were implanted with electroencephalogram (EEG) electrodes 24 hours after CCCI or Sham. […]
Computer-assisted cortical EEGs was recorded and reviewed for the presence of seizures and epileptiform spikes. […] Detected events were visually confirmed by blinded experimenters.

M-channels = assay: Voltage dependence of M-channels
[3] = tested on: C57BL/6J mice subjected to three blast TBIs; assay: Repetitive blast TBI (rbTBI): post-traumatic seizures and post-traumatic epilepsy, video/EEG
Method: Adult 12-week-old male C57BL/6J mice (Jackson Labs, Bar Harbor, Me.) were group-housed with food and water ad libitum in 12:12 hour light: dark cycle. […] Experimenters were blinded to group allocation during data collection and analysis.
The shock tube (Applied Research Associates) had and inner diameter of 17 inches and a about 36-inch end opening. […] Before reaching the mice, the air blast wave passed through a 0.016-inch-thick aluminum membrane of alloy AL-2200. Pencil probe gauges (PCB Piezotronics) were placed beside the mice to monitor the pressure of the air-driven blast wave. […] During the procedure, mice were anesthetized using ketamine (25-75 mg/kg) and dexmedetomidine (0.25 mg/kg). The animals were subjected to three directed head-on blast TBI with 24 hours intervals between each injury. On the first day of blast exposure, animals were given a subcutaneous injection of buprenorphine SR (1.2 mg/kg) in the interscapular region.
Sham animals were anesthetized and placed in the shock tube but were not subjected to the rbTBI. After each blast exposure, mice were given one subcutaneous injection of atipamezole (1 mg/kg) to reverse the anesthesia and placed into a recovery chamber with controlled temperature. On the following days, mice were monitored for signs of pain and distress.
Mice from the “TBI” group were injected with the same volume of vehicle solution only.
Seizures were identified visually by the investigator's analysis of the video/EEG records. The number of seizures, latency to the first seizure, seizure duration, and percentage of mice from each group that had seizures were quantified.

sympathetic neuron = assay: Action potential firing in a sympathetic neuron, current-clamp
Description: Various currents are applied in “current-clamp” mode 44 ranging from 50 pA to −100 pA, and the resulting AP firing recorded.

neurons = assay: Fluoro Jade B staining of neuronal cell death after CCCI; assay type: in vivo, mouse; settings: six days after CCCI; RTG 30 minutes post-TBI
Method: Flouro Jade B (FJB) staining was performed to assay neuronal cell death histologically and detect the degree of neurodegeneration six days after CCCI. Staining was performed as previously described.
Six days after CCCI, mice were euthanized via transcardial perfusion with PBS followed by 4% (w/v) paraformaldehyde (PFA). Brains were removed, post-fixed overnight in 4% PFA (Electron Microscopy Sciences), transferred into 30% (w/v) sucrose in PBS and kept at 4° C. for 3 days. […]
Ipsilateral cortical images (fluorescence images of FJB and counterstained DAPI) were taken by a Nikon Eclipse Ti with camera coolSNAP HQ^2 (confocal) microscope using a 20× objective (N.A. 0.75). Fluorescence excitation-emission for Fluoro Jade and DAPI were 470/40-500 and 350/50-460, respectively.
Cell count was obtained by nonbiased automatic quantification with ImageJ/FIJI (NIH, USA) particle analysis. […] After background subtraction and image threshold (1.05%), FIB positive cells were detected using the “analyze particles” (size: 20-100, circularity: 0.00-1.00) function of ImageJ. These parameters determined the pixel size and circularity of the acceptable ROIs and were used to identify cell bodies automatically.

With `CCOC(=O)Nc1ccc(NCc2ccc(F)cc2)cc1N` [RTG, 2-amino-4-(4-fluorobenzylamino)-1-ethoxycarbonylaminobenzene] the “occurrence of PTZ-induced seizures” value [1] was “completely blocked the occurrence of PTZ-induced seizures”, the “mice displaying post-traumatic seizures” value [2] was “no animal treated with RTG post-TBI displayed seizures and zero” and the “voltage dependence of M-channels” value (M-channels) was “shifting the voltage dependence of M-channels towards more negative potentials”. For the same compound, the “duration of post-traumatic seizures (PTS)” value ([3]; rbTBI, RTG 1.2 mg/kg i.p. 30 minutes after each blast, second to fourth day after TBIs) was “significantly reduced duration of the PTS”, the “mice experiencing seizures (PTE)” value ([3]; rbTBI, RTG 30 minutes after each TBI, first to ninth month after final rbTBI) was “about 20%” and the “severity of post-traumatic seizures (EEG amplitude)” value ([3]; rbTBI, RTG 30 minutes after each blast) was “less severe”. For the same compound, the “mice that developed post-traumatic epilepsy (PTE)” value ([3]; three blast TBIs one day apart, RTG 30 min after each, 1 month to 12 months after injury) was 25%, the “action potential firing in response to stimuli” value (sympathetic neuron) was “Complete silencing of the neuron occurs” and the “Fluoro Jade B labeling of neurons (neuronal death)” value (neurons) was “significantly higher FJB staining as compared to TBI+RTG cortical slices; also recorded: labeling of brain neurons by FJB was minimal”.
